For 5 molecules, IC50 results are on record in patent publication US8329904B2, “Azacyclic derivatives” (Hoffmann-La Roche Inc., priority 2009, dated 2012).

For this assay, the target named is T1, human HSL (Homo sapiens, UniProt Q05469).
T1 construct: overlapping PCR to generate a full length human HSL ORF with a 3′-His6 tag; His6 (C); made in house; host or cells: High 5 insect cells (baculovirus, pFast-BAC)
T1 sequence (Q05469 1-1076): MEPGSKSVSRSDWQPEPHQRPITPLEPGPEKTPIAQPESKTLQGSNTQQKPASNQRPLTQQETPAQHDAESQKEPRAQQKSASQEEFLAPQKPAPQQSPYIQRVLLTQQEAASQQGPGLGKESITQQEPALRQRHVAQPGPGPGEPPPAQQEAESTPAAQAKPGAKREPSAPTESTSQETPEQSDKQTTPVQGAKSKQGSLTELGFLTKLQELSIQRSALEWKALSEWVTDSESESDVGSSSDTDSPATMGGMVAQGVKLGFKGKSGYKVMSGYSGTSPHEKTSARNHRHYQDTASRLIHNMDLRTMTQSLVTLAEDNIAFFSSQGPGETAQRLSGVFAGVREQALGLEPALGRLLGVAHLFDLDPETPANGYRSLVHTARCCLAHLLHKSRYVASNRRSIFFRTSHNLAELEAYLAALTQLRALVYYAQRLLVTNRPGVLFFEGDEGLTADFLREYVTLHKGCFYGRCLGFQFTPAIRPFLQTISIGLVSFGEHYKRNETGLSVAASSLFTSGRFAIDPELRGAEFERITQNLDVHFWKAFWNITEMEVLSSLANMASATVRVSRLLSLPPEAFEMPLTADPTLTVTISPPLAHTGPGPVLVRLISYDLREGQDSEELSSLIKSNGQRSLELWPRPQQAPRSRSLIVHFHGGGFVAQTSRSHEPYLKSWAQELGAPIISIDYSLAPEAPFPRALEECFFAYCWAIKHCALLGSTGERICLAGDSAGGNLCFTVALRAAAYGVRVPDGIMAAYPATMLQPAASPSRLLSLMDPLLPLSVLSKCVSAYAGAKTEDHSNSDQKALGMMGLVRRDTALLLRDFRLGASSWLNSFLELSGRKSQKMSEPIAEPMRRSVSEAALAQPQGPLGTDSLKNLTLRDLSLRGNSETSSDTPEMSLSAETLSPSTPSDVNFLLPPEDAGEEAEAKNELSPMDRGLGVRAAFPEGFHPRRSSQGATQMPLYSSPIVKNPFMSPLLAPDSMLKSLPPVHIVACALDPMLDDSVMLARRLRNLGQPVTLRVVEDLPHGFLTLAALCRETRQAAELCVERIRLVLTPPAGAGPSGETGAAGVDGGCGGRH
Briefly: Human Hormone-Sensitive Lipase (HSL) Enzyme Inhibition Assay. Type of assay: biochemical. The settings on record: colorimetric assay, 2,3-dimercapto-1-propanol tributyrate (DMPT) substrate, 37° C. for 20 minutes, absorbance at 405 nm; read-out: HSL hum IC50. The method, boiled down:
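Colorimetric thioester hydrolysis: compounds in DMSO series mixed with DMPT (1.5 mM) in MOPS pH 7.2 with BSA, then baculovirus-expressed His6-tagged full-length human HSL added, 37° C, 20 min. DTNB plus detergents added, 15 min room temperature, absorbance at 405 nm.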

As to `CCN(Cc1ccccc1)C(=O)N1CCC2(CC1)CCN(c1ccc(OC(F)(F)F)cc1)C2=O` [Example 310, 1-Oxo-2-(4-trifluoromethoxy-phenyl)-2,8-diaza-spiro[4.5]decane-8-carboxylic acid benzyl-ethyl-amide], the half-inhibitory concentration (IC50) is 170 nM.
As to `CCN(C(=O)N1CCC2(CC1)CCN(c1ccc(OC(F)(F)F)cc1)C2=O)c1ccc(OC(F)(F)F)cc1` [Example 311, 1-Oxo-2-(4-trifluoromethoxy-phenyl)-2,8-diaza-spiro[4.5]decane-8-carboxylic acid ethyl-(4-trifluoromethoxy-phenyl)-amide], the IC50 was determined as 60 nM.
Take `Cc1cccc(Cl)c1S(=O)(=O)N1CCC2(CCN(c3ccc(OC(F)(F)F)cc3)C2=O)CC1` [Example 312, 8-(2-Chloro-6-methyl-benzenesulfonyl)-2-(4-trifluoromethoxy-phenyl)-2,8-diaza-spiro[4.5]decan-1-one]: the IC50 came out at 80 nM.
As for `CC(C)CN(C)C(=O)N1CCC2(CC1)CCN(c1ccc(C3CC3)cc1)C2=O` [Example 313, 2-(4-Cyclopropyl-phenyl)-1-oxo-2,8-diaza-spiro[4.5]decane-8-carboxylic acid isobutyl-methyl-amide], the IC50 stood at 90 nM.
With `CCCCN(C)C(=O)N1CCC2(CC1)CCN(c1ccc(C3CC3)cc1)C2=O` [Example 314, 2-(4-Cyclopropyl-phenyl)-1-oxo-2,8-diaza-spiro[4.5]decane-8-carboxylic acid butyl-methyl-amide], the IC50 is 130 nM.

A word on the IC50: it is the concentration that inhibits the measured activity by half.
